Where “and” joins values, the source holds several entries; their conditions need not be identical. Equal values may be shown once.
Tested on: 926638-142-R-J1-PDC complex spheroid viability
Experiment: Anticancer human tumor 926638-142-R-J1-PDC patient-derived endometrial carcinoma cell line growth inhibition [POLQ]
Details: for viability, T/C: stronger effect = lower value
Experimental: Multicellular complex tumor spheroid response to Polymerase (POL) inhibitors (novobiocin, ART-558, RP6685) in combination with a variety of drugs and investigational agents in selected tumor cell lines
The POL inhibitors (novobiocin, ART-558, and RP6685) were evaluated both individually and in combination with standard of care and investigational anticancer small molecules within a complex spheroid model of solid tumors. . Complex spheroids include a stromal component modeled by human endothelial cells (HUVEC) and fibroblasts modeled by human mesenchymal stem cells (MSCs). The concentration ranges selected for each drug and investigational agent were based upon clinically achievable concentrations if the clinical Cmax of the agent was known.
Compounds. The drugs and investigational agents: novobiocin (NSC847541), ART-558 (NSC835418), RP-6685 (NSC848927), peposertib (NSC802822), ceralasertib (NSC780249), elimusertib (NSC800525), camonsertib (NSC841442), AZD-1390 (NSC803789), olaparib (NSC753686), talazoparib (NSC767125), rucaparib (NSC756644), sotorasib (NSC818433), MRTX-1133 (NSC836407), SN-38 (NSC673596), topotecan (NSC609699), epotoside (NSC141540), doxorubicin (NSC123127), gemcitabine (NSC613327), 5-fluorouracil (NSC19893), paclitaxel (NSC125973), vemurafenib (NSC761431), MSA-2 (NSC828583), SN-011 (NSC837082), adavosertib (NSC754352), prexasertib (NSC758257), carboplatin (NSC241240) and oxaliplatin (NSC266046), were obtained from the National Cancer Institute (NCI) Developmental Therapeutics Program Chemical Repository (21). The FDA-approved anticancer drug set is available from the Developmental Therapeutics Program at https://dtp.cancer.gov/organization/dscb/obtaining/. […] The stock solutions were prepared in dimethyl sulfoxide (DMSO, Sigma-Aldrich, St. Louis, MO, cat. D2650), except for the platinum compounds which were prepared in saline (Quality Biological, Gaithersburg, MD, cat. 114-055-101), at 800-fold the tested concentration and stored at -70 degrees C prior to their use. All drugs and investigational agents were tested over a range starting from a high concentration at or near the clinical Cmax and decreasing in half-log increments. If the clinical Cmax for an agent had not been determined, the highest concentration tested was 10 microM, except for SN-38, which was tested at a high concentration of 1 microM.
Cell Culture. All cells were maintained in an incubator at 37 degrees C and 5% CO2 with 95% humidity. The PDC lines were cultured according to standard operating procedures established by the NCI PDMR (https://pdmr.cancer.gov). Table 3 of the manuscript, lists the cell lines along with the number of the three cell types plated to form the mct-spheroids and media for tumor cell growth. After thawing, all PDC lines, except 997537-175-T-J1-PDC and 415267-285-R-J2-PDC, were cultured in Matrigel-coated flasks prepared with a working solution of 1X Ham's F-12 nutrient mix, without supplementation (Thermo Fisher Scientific, cat. 11765054), 100 U/mL penicillin-streptomycin (Thermo Fisher Scientific, cat. 15140122), and 2.5% Matrigel (Corning Inc., Corning, NY, cat. 354248) for the first three passages. The two PDC lines 997537-175-T-J1-PDC and 415267-285-R-J2-PDC were cultured on uncoated flasks. The 857933-349-R-J2-PDC line was cultured in 6C/Colon 1B media containing advanced DMEM/F-12 (Thermo Fisher Scientific, cat. 12634028), 10 mM HEPES (Thermo Fisher Scientific, cat. 15630080), 1X GlutaMAX supplement (Thermo Fisher Scientific, cat. 35050061), 0.1 mg/mL primocin (InvivoGen, San Diego, CA, cat. ant-pm-2), 10% defined fetal bovine serum, heat inactivated (HyClone Laboratories Inc., Logan, UT, cat. SH30070.03HI), 50% L-WRN conditioned media (ATCC, cat. CRL-3276), 1.25 mM N-Acetyl-L-cysteine (Sigma-Aldrich, cat. A9165), 10 mM nicotinamide (Sigma-Aldrich, cat. N0636), 1X B-27 supplement (Thermo Fisher Scientific, cat. 17504044), 1X N-2 supplement (Thermo Fisher Scientific, cat. […]

[1] = compound alone, run of 01/08/2024
[2] = compound alone, run of 01/19/2024
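Further: spheroids exposed to drugs for one week before readout.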
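Wherever viability, T/C is given: percent viability relative to DMSO vehicle control wells set as 100%.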

| Structure (SMILES) | viability, T/C (compound 0.0316 µM) | viability, T/C (compound 0.1 µM) | viability, T/C (compound 0.316 µM) | viability, T/C (compound 1 µM) | viability, T/C (compound 3.16 µM) | viability, T/C (compound 10 µM) | IC50 (curve of compound) | IC50 [1] | viability, T/C (compound 0.00316 µM) | viability, T/C (compound 0.01 µM) | IC50 [2] | viability, T/C (compound 0.000316 µM) | viability, T/C (compound 0.001 µM) |
| --- | --- | --- | --- | --- | --- | --- | --- | --- | --- | --- | --- | --- | --- |
| CNCc1ccc(-c2[nH]c3cc(F)cc4c3c2CCNC4=O)cc1 | 93.7% and 109% and 101% | 89.6% and 97.2% and 79.2% | 92.8% (2×) and 87.7% | 77.7% and 97.3% and 82.6% | 86.7% and 87.1% and 95.7% | 78% and 80.2% and 84.1% | > 10000 nM |  |  |  |  |  |  |
| COC1C(OC(N)=O)C(O)C(Oc2ccc3c(O)c(NC(=O)c4ccc(O)c(CC=C(C)C)c4)c(=O)oc3c2C)OC1(C)C (centres undefined) |  |  | 101% [middle of 13 runs] |  |  | 98.8% [middle of 13 runs] |  | > 10000 nM |  |  |  |  |  |
| COc1cc(C2c3cc4c(cc3C(OC3OC5COC(C)OC5C(O)C3O)C3COC(=O)C23)OCO4)cc(OC)c1O (centres undefined) | 97.6% and 99% and 86.2% | 79.6% (2×) and 77.2% | 63.6% and 68.3% and 88.5% | 67.9% and 82.5% and 80.7% | 66.8% and 64.7% and 65.7% | 65.4% and 55.2% and 55.3% | > 10000 nM |  |  |  |  |  |  |
| COc1cc2cc(C(=O)CCC(=O)O)sc2cc1OC | 90.1% and 110% and 93.5% | 89.8% and 92.9% and 113% | 98.2% and 105% and 100% | 101% and 109% and 93.2% | 99.7% and 107% and 75.5% | 90.7% and 92.1% and 93.5% | > 10000 nM |  |  |  |  |  |  |
| COc1ccc([C@@H](O)c2cc(-c3ncnc4cc(N5CCOCC5)ccc34)c(F)cc2Cl)nn1 | 89.7% and 92.5% and 103% | 89.2% and 79.2% and 80.3% | 58.8% and 72.4% and 64.8% | 29.3% and 35.7% and 36.9% | 13.2% and 18.7% and 16.1% | 8.76% and 11.7% and 5.8% | 466 nM and 635 nM and 606 nM |  |  |  |  |  |  |
| COc1cccc(OCCCN)c1-c1cc(Nc2cnc(C#N)cn2)n[nH]1 | 60.4% and 55.2% and 58.4% | 55.1% and 55.9% and 59.1% | 52% and 40.5% and 39.7% | 26.3% and 36.1% and 36.3% |  |  | 150 nM and 108 nM and 130 nM |  | 93.2% and 79.9% and 100% | 77.4% and 82.9% and 82.8% |  |  |  |
| COc1cccc2c1C(=O)c1c(O)c3c(c(O)c1C2=O)CC(O)(C(=O)CO)CC3OC1CC(N)C(O)C(C)O1 (centres undefined) | 77.2% and 83% and 80.9% | 57.6% and 62.2% and 59.7% | 17.8% and 23.1% and 18.7% | 3.79% and 5.62% and 2.27% | 0.22% and 0.29% and 0.23% | 0.25% and 0.29% and 0.23% | 124 nM and 143 nM and 131 nM |  |  |  |  |  |  |
| Cc1cccc(N(C)C(=O)C2C(O)CCN2c2nc(C)cc(C(F)(F)F)c2C#N)c1 (centres undefined) |  | 92.5% [middle of 13 runs] | 94.9% [middle of 13 runs] |  |  |  |  | > 10000 nM |  |  | > 10000 nM |  |  |
| Cn1ncnc1[C@H]1c2n[nH]c(=O)c3cc(F)cc(c23)N[C@@H]1c1ccc(F)cc1 | 86.7% and 70% and 82.3% | 67% and 72.8% and 67.5% |  |  |  |  | > 100 nM |  | 76.9% and 94.5% and 82.1% | 89.5% and 92.3% and 85.3% |  | 89.5% and 93.8% and 99.4% | 85.5% and 91.6% and 86% |
| Nc1ccc(C#CCN(C(=O)Cc2ncc(C(F)(F)F)cc2C(F)(F)F)c2ccc(F)cc2)nn1 | 101% [middle of 13 runs] | 101% [middle of 13 runs] |  | 97.2% [middle of 13 runs] |  | 99.8% [middle of 13 runs] |  |  |  |  | > 10000 nM |  |  |
| Nc1ccn(C2OC(CO)C(O)C2(F)F)c(=O)n1 (centres undefined) | 69.5% and 96.5% and 88.2% | 66% and 60.7% and 62% | 54.2% and 57.4% and 60.7% | 52.6% and 52.3% and 53.2% | 43.8% and 41.2% and 44% | 30.5% and 27.8% and 24.4% | 1100 nM and 577 nM and 974 nM |  |  |  |  |  |  |
| O=C(Nc1ccc(O)c(NS(=O)(=O)c2ccc(F)cc2)c1)c1ccc(-c2ccccc2)cc1 | 102% and 99.8% and 82.6% | 96.1% and 93.2% and 102% | 94.9% and 98.2% and 96% | 100% and 98.5% and 103% | 78.1% and 104% and 105% | 59.8% and 65.5% and 79.2% | > 10000 nM |  |  |  |  |  |  |
| O=C(c1cc(Cc2n[nH]c(=O)c3ccccc23)ccc1F)N1CCN(C(=O)C2CC2)CC1 | 88.8% and 70.9% and 97% | 85.3% and 91.2% and 85.1% | 86.5% and 105% and 91.6% | 88.9% and 104% and 100% | 85% and 76.3% and 79.9% | 70.9% and 87.5% and 73% | > 10000 nM |  |  |  |  |  |  |
| O=c1[nH]cc(F)c(=O)[nH]1 | 109% and 99.3% and 86.3% | 101% and 89.2% and 108% | 92% (2×) and 87.6% | 89% and 95.6% and 93% | 84.3% and 86% and 78.8% | 75% and 88% and 80% | > 10000 nM |  |  |  |  |  |  |

Reference: PubChem BioAssay AID1963826 (Molecular Pharmacology Branch, DTP, NCI, 2024)
